What was measured:
[1] = system: Human T-lymphocytic MT-4 cells; test: Cytotoxicity test, MTT colorimetric assay; format: cell-based; conditions: 5 days, percentage inhibition of cell growth, mean ± S.E.M (n=3)
[2] = system: HIV-1IIIB; format: cell-based, Human immunodeficiency virus type 1; conditions: HIV-1IIIB infected MT-4 cells, 5 days, mean ± S.E.M (n=3)

Compound | EmaxC (maximum cytotoxic effect %) [1] | EmaxAV (maximum antiviral effect %, CPE inhibition %) [2]
Cc1ccnc2c1NC(=O)c1cccnc1N2C1CC1 [NVP, nevirapine] | > 35% | –
Cc1cn([C@H]2C[C@H](N=[N+]=[N-])[C@@H](CO)O2)c(=O)[nH]c1=O [AZT, zidovudine] | – | 83%

Reference: PMC8866981 (Journal of Experimental Pharmacology, 2021)
